What was measured:
RCC4 cells = assay: XTT assay in VHL-deficient RCC4 cells; type: cell-based; details: Homo sapiens, 96 h, XTT assay, VHL-deficient RCC4 cells, four days
Outline: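 RCC4 cells with and without VHL seeded at 5000/well, then exposed next day to serially diluted compound (DMSO vehicle) for four days. Viability read by XTT (0.3 mg/ml) with PMS, 1-2 h at 37° C, absorbance at 450 nm.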

LC3 = LC3 processing by Western blot and immunostaining; type: cell-based; details: co-treatment with 1.25 μM STF-62247, 20 hrs, VHL-deficient RCC cells
Description: Western blot analysis. After treatments, cells were lysed in urea buffer (9M urea, 75 mM Tris (pH 7.5), 150 mM b-mercaptoethanol), placed on ice for 10 minutes and sonicated briefly (15 seconds). Extracts were centrifugated at 8,000×g for 10 minutes to eliminate insoluble material. Lysates were quantitated using Bio-Rad protein Assay (Bio-Rad Laboratories) and 20-30 μg of proteins were separated on a 7.5% or 15% bis-acrylamide gels and then transferred onto PVDF membranes. Proteins were visualized using HIF-2α (Novus Biological), HIF-1α, pVHL and BiP (BD Biosciences), LC3 (MBL), Atg5, or α-tubulin antibodies.
Immunofluorescence staining. Cells were seeded on glass coverslips and at subconfluence, STF-62247 was added at 1.25 μM for RCC4 and 3.75 μM for SN12C. After 20 hours, cells were fixed in 3.7% formaldehyde for 10 min at room temperature and washed in PBS. Then cells were permeabilized in 0.2% Triton X-100 for 5 min at room temperature and washed in PBS. The coverslips were incubated with primary antibody LC3 diluted 1:500 in PBS containing 0.2% BSA for 1 hour at room temperature. Cells were washed three times in PBS-BSA and the bound primary antibody was detected using a fluorescein-conjugated secondary antibody (ALEXA) diluted 1:500 in PBS-BSA and incubated for 1 hour. Coverslips were washed and mounted in mounting medium from Vector Laboratories according to the manufacturer's instructions. Cells were examined with a confocal microscope
A. Phase contrast pictures of VHL-deficient RCC4 and SN12C-VHL shRNA cells and VHL-positive cells RCC4 and SN12C after 20 hrs of 1.25 μM STF-62247. B. Immunostaining for LC3 following STF-62247 treatment at 1.25 μM for 20 hrs with or without 2 mM of 3-MA in RCC4 with and without VHL cells. After treatment, cells were fixed, permeabilized and processed for the detection of punctuate staining by indirect immunofluorescence. C. Autophagic vacuoles stained with monodansylcadaverine (MDC). After STF-62247 treatment in the same conditions, MDC was added for the last 10 minutes. Cells were fixed, washed with PBS and observed directly under microscope. D. Western blot for LC3 in RCC4, RCC4/VHL, SN12C, and SN12C-VHL shRNA cells after STF-62247 treatment with or without 3-MA. Nutrient starvation (EBSS) is used as positive control. E. Western blot for LC3 in RCC4 and RCC4/VHL with different concentrations of STF-62247. Tubulin was used as loading control. F. Cell viability assay in VHL-deficient RCC4 and wild-type VHL cells treated with 1 mM of 3-MA, 1.25 μM of STF-62247 alone or in combination for 24 hrs. Viability is measured by trypan blue exclusion assay and is represented by the average of three different experiments in duplicate as the percent of treated on untreated cells. The error bars are represented as SEM.
A. VHL-deficient RCC4 and wild-type VHL were incubated in presence of 10 μM LY294002, or 1 μg/mlBrefeldin A with 1.25 μM of STF-62247 for 20 hrs and the presence of vacuoles was examined under light microscopy. B,C. LC3 processing was evaluated by Western blot after the treatment with Brefeldin A or LY294002 in presence or absence of STF-62247 as described above. Tubulin was used as loading control. D. Cells were treated with 1.25 μM of STF-62247 with or without 2 mM of 3-MA, 1 μg/ml of Brefeldin A for 20 hrs. For the last 15 min, acidic components were stained with 1 μg/ml of acridine orange and visualized under fluorescence microscope. […] F. Quantification of the FACS analysis. The data are calculated as the average of three different experiments as relative units of treated over untreated cells. The error bars are represented as the standard error of the mean (SEM).
B,C. LC3 processing was evaluated by Western blot after the treatment with U0126 or tunicamycin in presence or absence of STF-62247 as described above. Tubulin was used as loading control.

| SMILES | IC50 (RCC4 cells; Table 1) [µM] | melting point [°C] | IC50 (RCC4 cells; Table 2) [µM] | effect of inhibitor on vacuole formation and LC3-II induced by STF-62247 (LC3) |
| --- | --- | --- | --- | --- |
| Cc1cccc(Nc2nc(-c3ccncc3)c(C(=O)NCCCN3CCOCC3)s2)c1 [Compound 94, 2-[(3-Methylphenyl)amino]-N-[3-(4-morpholinyl)propyl]-4-(4-pyridinyl)-1,3-thiazole-5-carboxamide] | > 40 | 190 to 192 | – | – |
| Cc1cccc(C(=O)Nc2nc(-c3ccncc3)cs2)c1 [Compound 100, 3-Methyl-N-[4-(4-pyridinyl)-1,3-thiazol-2-yl]benzamide] | > 40 | 201 to 202 | – | – |
| c1cc(-c2csc(Nc3ccc4c(c3)OCO4)n2)ccn1 [Compound 59, N-(1,3-Benzodioxol-5-yl)-4-(4-pyridinyl)-1,3-thiazol-2-amine] | > 40 | 201 to 203 | – | – |
| Cc1cccc(N(CCO)c2nc(-c3ccncc3)cs2)c1 [Compound 97, 2-{3-Methyl[4-(4-pyridinyl)-1,3-thiazol-2-yl]anilino}ethanol] | > 40 | 149 to 151 | – | – |
| CCOC(=O)c1sc(Nc2cccc(C)c2)nc1-c1ccncc1 [Compound 88, Ethyl 2-[(3-Methylphenyl)amino]-4-(4-pyridinyl)-1,3-thiazole-5-carboxylate] | > 40 | 233 to 235 | – | – |
| O=[N+]([O-])c1cccc(Nc2nc(-c3ccncc3)cs2)c1 [Compound 129, N-(3-Nitrophenyl)-4-(4-pyridinyl)-1,3-thiazol-2-amine] | > 40 | 244 to 247 | – | – |
| COc1cc(Nc2nc(-c3ccncc3)cs2)cc(OC)c1 [Compound 57, N-(3,5-Dimethoxyphenyl)-4-(4-pyridinyl)-1,3-thiazol-2-amine] | > 40 | 229 to 231 | – | – |
| COC(=O)CCc1sc(Nc2cccc(C)c2)nc1-c1ccncc1 [Compound 79, Methyl 3-[2-[(3-Methylphenyl)amino]-4-(4-pyridinyl)-1,3-thiazol-5-yl]propanoate] | > 40 | 121 to 123 | – | – |
| Cc1cccc(Nc2nc(-c3ccncc3)co2)c1 [Compound 105, N-(3-Methylphenyl)-4-(4-pyridinyl)-1,3-oxazol-2-amine] | > 40 | 201 to 204 | – | – |
| Cc1cccc(Nc2nc(-c3ccncc3)c(C=O)s2)c1 [Compound 77, 2-[(3-Methylphenyl)amino]-4-(4-pyridinyl)-1,3-thiazole-5-carbaldehyde] | 15 | 220 to 223 | – | – |
| Cc1cccc(CNc2nc(-c3ccncc3)cs2)c1 [Compound 103, N-(3-Methylbenzyl)-4-(4-pyridinyl)-1,3-thiazol-2-amine] | > 40 | 192 to 194 | – | – |
| O=[N+]([O-])c1ccccc1Nc1nc(-c2ccncc2)cs1 [Compound 119, N-[2-Nitrophenyl]-4-(4-pyridinyl)-1,3-thiazol-2-amine] | > 40 | 127 to 130 | – | – |
| Fc1cccc(Nc2nc(-c3ccncc3)cs2)c1 [Compound 121, N-(3-Fluorophenyl)-4-(4-pyridinyl)-1,3-thiazol-2-amine] | > 40 | 229 to 230 | – | – |
| CCOC(=O)c1sc(Nc2ccc3c(c2)CCC3)nc1-c1ccncc1 [Compound 89, Ethyl 2-(2,3-Dihydro-1H-inden-5-ylamino)-4-(4-pyridinyl)-1,3-thiazole-5-carboxylate] | > 40 | 203 to 205 | – | – |
| Cc1cccc(Nc2nc(-c3ccncc3N)cs2)c1 [Compound 182] | – | 159 to 161 | > 40 | – |
| FC(F)(F)c1ccccc1Nc1nc(-c2ccncc2)cs1 [Compound 117, 4-(4-Pyridinyl)-N-[2-(trifluoromethyl)phenyl]-1,3-thiazol-2-amine] | > 40 | 170 to 172 | – | – |
| CC(C)(C)c1cccc(Nc2nc(-c3ccncc3)cs2)c1 [Compound 11, N-(3-tert-Butylphenyl)-4-(4-pyridinyl)-1,3-thiazol-2-amine] | > 40 | 208 to 210 | – | – |
| COc1ccc(C(=O)Nc2nc(-c3ccncc3)cs2)cc1 [Compound 102, 4-Methoxy-N-[4-(4-pyridinyl)-1,3-thiazol-2-yl]benzamide] | > 40 | 271 to 274 | – | – |
| N#CC(=C(/N)Sc1ccccc1N)/C(C#N)=C(\N)Sc1ccccc1N [Compound U0126, reference compound] | – | – | – | had little effect on autophagy induced by STF-62247 |
| Fc1cccc(F)c1Nc1nc(-c2ccncc2)cs1 [Compound 139, N-(2,6-Difluorophenyl)-4-(4-pyridinyl)-1,3-thiazol-2-amine] | > 40 | 209 to 211 | – | – |
| O=C(Nc1nc(-c2ccncc2)cs1)c1ccccc1 [Compound 99, N-[4-(4-Pyridinyl)-1,3-thiazol-2-yl]benzamide] | > 40 | 241 to 243 | – | – |
| Cc1ccccc1Nc1nc(-c2ccncc2)cs1 [Compound 111, N-(2-Methylphenyl)-4-(4-pyridinyl)-1,3-thiazol-2-amine] | > 40 | 158 to 160 | – | – |
| Cc1cccc(Nc2nc(-c3ccnc(C)c3)cs2)c1 [Compound 145, N-(3-Methylphenyl)-4-(2-methyl-4-pyridinyl)-1,3-thiazol-2-amine] | – | 198 to 200 | > 40 | – |
| N#Cc1ccc(Nc2nc(-c3ccncc3)cs2)cc1 [Compound 135, 4-{[4-(4-Pyridinyl)-1,3-thiazol-2-yl]amino}benzonitrile] | > 40 | > 300 | – | – |
| Cc1cccc(Nc2nc(-c3ccncc3)c(C(=O)NCCN(C)C)s2)c1 [Compound 93, N-[2-(Dimethylamino)ethyl]-2-[(3-methylphenyl)amino]-4-(4-pyridinyl)-1,3-thiazole-5-carboxamide] | > 40 | 189 to 191 | – | – |
| Cc1cccc(C)c1Nc1nc(-c2ccncc2)cs1 [Compound 137, N-(2,6-Dimethylphenyl)-4-(4-pyridinyl)-1,3-thiazol-2-amine] | > 40 | 208 to 210 | – | – |
| N#Cc1cccc(Nc2nc(-c3ccncc3)cs2)c1 [Compound 127, 3-{[4-(4-Pyridinyl)-1,3-thiazol-2-yl]amino}benzonitrile] | > 40 | 252 to 253 | – | – |
| O=[N+]([O-])c1ccc(Nc2nc(-c3ccncc3)cs2)cc1 [Compound 35, N-(4-Nitrophenyl)-4-(4-pyridinyl)-1,3-thiazol-2-amine] | > 40 | > 290 | – | – |

Reference: US20110105436A1, “HETEROARYL COMPOUNDS, COMPOSITIONS, AND METHODS OF USE IN CANCER TREATMENT” (AUCKLAND UNISERVICES LIMITED, priority 2008, published 2011)
